Experimental data published in patent US4416883A, “Penicillin derivatives” (Beecham Group Limited, priority 1980, dated 1983).

How the values were obtained:
Format in all cases: cell-based
Klebsiella aerogenes A = assay: MIC against Klebsiella aerogenes A
Source text: (§1) | MIC values (μg/ml) of the compounds of Example 4b against | a number of organisms important in human infections

E. coli NCTC 10418 = assay: MIC against E. coli NCTC 10418; conditions: Escherichia coli
Source text: as §1

S. faecalis I = assay: MIC against S. faecalis I; conditions: Enterococcus faecalis, AGAR
Source text: as §1

Staph. aureus Russell = assay: MIC against Staph. aureus Russell; conditions: Staphylococcus aureus, AGAR
Source text: as §1

B. subtilis = assay: MIC against B. subtilis; conditions: Bacillus subtilis, AGAR
Source text: as §1

E. coli JT425 = assay: MIC against E. coli JT425; conditions: Escherichia coli, AGAR
Source text: as §1

P. mirabilis 889 = assay: MIC against P. mirabilis 889; conditions: Proteus mirabilis, AGAR
Source text: as §1

P. mirabilis C977 = assay: MIC against P. mirabilis C977; conditions: Proteus mirabilis, AGAR
Source text: as §1

Serratia marcescens US32 = assay: MIC against Serratia marcescens US32; conditions: AGAR
Source text: as §1

Staph. aureus Oxford = assay: MIC against Staph. aureus Oxford; conditions: Staphylococcus aureus
Source text: as §1

E. coli JT4 = assay: MIC against E. coli JT4; conditions: Escherichia coli, AGAR
Source text: as §1

Ps aeruginosa Dalgleish = assay: MIC against Ps aeruginosa Dalgleish; conditions: AGAR; Ps aeruginosa Dalgleish 10^-2
Source text: as §1

β-Haemolytic Strep. CN10 = assay: MIC against β-Haemolytic Strep. CN10; conditions: AGAR
Source text: as §1

Ps aeruginosa 10662 = assay: MIC against Ps aeruginosa 10662
Source text: as §1

Enterobacter cloacae N1 = assay: MIC against Enterobacter cloacae N1; conditions: AGAR
Source text: as §1

P. morganii = assay: MIC against P. morganii; conditions: Morganella morganii, AGAR
Source text: as §1

P. rettgeri = assay: MIC against P. rettgeri; conditions: Providencia rettgeri, AGAR
Source text: as §1

MIC (Klebsiella aerogenes A; AGAR): 0.2 µg/mL | MIC (Klebsiella aerogenes A; BROTH): > 10 µg/mL | MIC (E. coli NCTC 10418; NCTC10418, AGAR): 1 µg/mL | MIC (E. coli NCTC 10418; NCTC10418, BROTH): 0.5 µg/mL | MIC (S. faecalis I): 50 µg/mL | MIC (Staph. aureus Russell): > 100 µg/mL | MIC (B. subtilis): 5 µg/mL | MIC (E. coli JT425): 10 µg/mL | MIC (P. mirabilis 889): > 100 µg/mL | MIC (P. mirabilis C977): 0.1 µg/mL | MIC (Serratia marcescens US32): 0.5 µg/mL | MIC (Staph. aureus Oxford; AGAR): 1 µg/mL | MIC (Staph. aureus Oxford; BROTH): 0.5 µg/mL | MIC (E. coli JT4): > 100 µg/mL | MIC (Ps aeruginosa Dalgleish): > 100 µg/mL | MIC (Ps aeruginosa 10662; AGAR, Ps aeruginosa 10662): 10 µg/mL | MIC (Ps aeruginosa 10662; AGAR, Ps aeruginosa 10662 10^-2): 5 µg/mL | MIC (Ps aeruginosa 10662; BROTH, Ps aeruginosa 10662): 10 µg/mL | MIC (Ps aeruginosa 10662; BROTH, Ps aeruginosa 10662 10^-2): 5 µg/mL | MIC (Enterobacter cloacae N1): 0.5 µg/mL | MIC (P. morganii): 0.2 µg/mL | MIC (P. rettgeri): 0.5 µg/mL
SMILES: CCN1CCN(C(=O)N[C@@H](C(=O)N[C@@H]2C(=O)N3[C@@H](C(=O)O)CS[C@H]23)c2ccccc2)C(=O)C1=O [Example 4b, Sodium 6β[D,2(4-ethyl-2,3-dioxopiperazine-1-carbonylamino)]phenylacetamidobisnorpenicillanate]
MIC (β-Haemolytic Strep. CN10): 0.2 µg/mL
